Patent US20240261302A1, “METHODS OF TREATING NEURODEGENERATIVE DISEASES OR CONDITIONS” (FloraScience Inc., priority 2023, published 2024)
“Also recorded” adds a separate entry of the source.

Assays:
HT22 cells [1] = assay: Cellular Lipid Peroxidation Measurement (C11-BODIPY); assay type: cell-based, mouse
Method: Lipid Peroxidation MeasurementsHT22 cells were seeded onto 96-well black walled plates at a density of 3,000 cells/well in DMEM supplemented with 10% FBS and 1% antibiotics. After the desired treatments, cells were labeled with 2.5 μM C11-BODIPY 581/591 (oxidized form Ex/Em=488/520 nm) at 37° C. for 2 hr. Experiments were performed according to the manufacturer's instructions. Fluorescence was measured on a SpectraMax M5 microplate reader. Data were normalized for total protein/well. Each condition was analyzed in twelve wells per independent experiment (n=12). Results were presented as the percentage of the controls with vehicle alone. Results were verified by live-cell imaging under a fluorescence microscope.

[2] = Cell-free, liposome-based assay of lipid peroxidation (STY-BODIPY); assay type: biochemical; details: test compounds 10 μM
Method: For the cell-free, liposome-based assay, STY-BODIPY (1.5 μM) and liposomes of egg-PC (1 mM) (Avanti Polar Lipids Inc, Cat #840051P, AL) in TBS (pH 7.4) were added to an opaque 96-well plate. This was followed by the addition of test compounds (10 μM). The plate was incubated for 30 min at 37° C. and then vigorously mixed for 5 min. The autoxidation was initiated by the addition of V-70 (0.5 mM) (Fujifilm Wako, Cat #001-70078, Japan), followed by additional mixing for 5 min. Data were acquired at Ex/Em=488/518 nm every 15 min at 37° C. on a SpectraMax M5 microplate reader. Data were transformed into [ox-STY-BODIPY] by taking the raw fluorescent values of the saturated curve of control DMSO and dividing them by the initial concentration of reduced STY-BODIPY ([…]). Samples were analyzed in quadruplicate in four independent experiments (n=4).

HT22 cells [3] = assay: MitoTracker Assay (mitochondrial mass); assay type: cell-based, mouse
Method: MitoTracker Assay. HT22 cells were seeded onto 96-well black walled plates at a density of 5,000 cells/well in DMEM supplemented with 10% FBS and 1% antibiotics. After the desired treatments, MitoTracker Orange CM−H2TMRos (Ex/Em=554/576 nm) and Hoechst 33342 (Ex/Em=360/460 nm) dyes were added to the cells and incubated under the same culture condition for 2 hr. Fluorescence was measured on a SpectraMax M5 microplate reader. Experiments were performed according to the manufacturer's instructions. Data were normalized for total protein/well. Each condition was analyzed in sixteen wells per independent experiment (n=16). Results were presented as the percentage of the controls with vehicle alone. Results were verified by live-cell imaging under a fluorescence microscope.

[4] = system: HT22 mt-GFP/mCherry-Parkin cells; assay: Cell viability after RSL3 with/without FCCP (CyQUANT DNA-based assay, fluorescence microscopy), mt-GFP/mCherry-Parkin cells; parameters: species or system mouse

With `CCCCCc1cc(O)c2c(c1)OC(C)(C)c1ccc(C)cc1-2` [CBN, 6,6,9-Trimethyl-3-pentyl-benzo[c]chromen-1-ol] the “RSL3-induced cellular lipid peroxidation” value (HT22 cells [1]; 50 nM RSL3, 16 hr, p<0.0001) was “effectively suppressed”, the “basal cellular lipid peroxidation, compound alone” value (HT22 cells [1]; CBN 5 μM, ferrostatin 10 μM, 16 hr) was “neither CBN (5 μM) nor ferrostatin (10 μM) alone changed basal levels of lipid peroxidation” and the “inhibition of lipid peroxidation, cell-free” value [2] was “showed no inhibition”. For the same compound, the “increase of MitoTracker fluorescence (mitochondrial mass)” value (HT22 cells [3]; 5 μM, 16 hr, vs control group) was 4.9%, the “mitochondrial mass with RSL3” value (HT22 cells [3]; RSL3-induced oxytosis/ferroptosis) was “preserve the mitochondrial mass at the control level” and the “protection against RSL3-induced cell death, no FCCP pretreatment” value ([4]; 16 hr) was “strong and equivalent protection”. The “protection against RSL3 after FCCP pretreatment (mitochondria-depleted cells)” value ([4]; FCCP 5 μM 24 hr, then 16 hr) was “failed to protect; also recorded: did not protect” and the “cell numbers after FCCP pretreatment, co-treatment with compound” value ([4]; FCCP 24 hr, CBN additional 16 hr) was “did not further change the cell numbers”.
